Test results taken from ChEMBL document CHEMBL1201862, “PubChem BioAssay data set” (2004).
Calls of active or inactive are those of the source. Cut-off read from the data, not from the text of the source, for most assays here: actives have a measured EC50 and inactives only a lower limit.

Experiments:
Cytochrome P450 1A2 = molecular target: T1, Cytochrome P450 1A2 (Homo sapiens, UniProt P05177);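 note: PubChem cytochrome P450 panel assay, CYP1A2 panel member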
T1 sequence (P05177 whole entry): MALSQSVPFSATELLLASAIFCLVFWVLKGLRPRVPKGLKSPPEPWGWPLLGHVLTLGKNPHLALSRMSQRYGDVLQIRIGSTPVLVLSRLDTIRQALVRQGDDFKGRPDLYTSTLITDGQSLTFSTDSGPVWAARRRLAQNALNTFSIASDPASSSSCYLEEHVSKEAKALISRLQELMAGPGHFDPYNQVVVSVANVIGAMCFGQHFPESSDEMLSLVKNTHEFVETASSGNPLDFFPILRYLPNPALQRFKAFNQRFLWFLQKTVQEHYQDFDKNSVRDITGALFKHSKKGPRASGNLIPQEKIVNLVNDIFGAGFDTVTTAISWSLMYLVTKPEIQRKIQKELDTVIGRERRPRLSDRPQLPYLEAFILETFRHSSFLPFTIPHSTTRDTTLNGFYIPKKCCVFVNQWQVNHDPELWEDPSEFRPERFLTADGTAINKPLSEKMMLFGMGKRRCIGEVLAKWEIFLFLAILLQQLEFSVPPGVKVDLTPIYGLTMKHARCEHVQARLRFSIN

Protein RecA = molecular target: T2, Protein RecA (Mycobacterium tuberculosis, UniProt P9WHJ3); assay: Fluorescence Cell-Free Homogeneous Dose Retest to Identify Inhibitors of RecA-Intein Splicing Activity. [Related pubchem assays (depositor defined):AID2097, AID2223, AID489010, AID492950]; assay type: functional
T2 sequence (P9WHJ3 whole entry): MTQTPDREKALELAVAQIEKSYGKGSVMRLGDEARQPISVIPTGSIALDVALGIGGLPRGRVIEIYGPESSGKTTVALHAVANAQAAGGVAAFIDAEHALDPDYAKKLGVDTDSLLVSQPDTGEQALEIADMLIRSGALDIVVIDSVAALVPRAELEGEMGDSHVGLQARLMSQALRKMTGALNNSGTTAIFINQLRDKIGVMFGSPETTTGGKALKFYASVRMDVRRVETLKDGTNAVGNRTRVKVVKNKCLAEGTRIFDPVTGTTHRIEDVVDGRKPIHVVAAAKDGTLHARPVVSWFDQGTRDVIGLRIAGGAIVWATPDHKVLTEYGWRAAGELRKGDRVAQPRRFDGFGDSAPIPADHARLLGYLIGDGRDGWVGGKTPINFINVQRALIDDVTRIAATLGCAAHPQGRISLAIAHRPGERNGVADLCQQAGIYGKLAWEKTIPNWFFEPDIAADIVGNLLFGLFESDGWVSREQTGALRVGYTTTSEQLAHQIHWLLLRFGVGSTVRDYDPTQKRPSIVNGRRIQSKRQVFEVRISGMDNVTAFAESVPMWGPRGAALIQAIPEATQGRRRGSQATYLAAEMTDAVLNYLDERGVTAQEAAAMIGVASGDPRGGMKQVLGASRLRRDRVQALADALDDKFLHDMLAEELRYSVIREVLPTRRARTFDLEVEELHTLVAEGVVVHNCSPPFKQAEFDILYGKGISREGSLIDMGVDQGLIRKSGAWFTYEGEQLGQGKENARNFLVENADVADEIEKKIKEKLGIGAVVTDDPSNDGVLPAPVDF

[1] = molecular target: T3, Replicative DNA helicase DnaB (Mycobacterium tuberculosis, UniProt P9WMR3); assay: DnaB intein splicing inhibitors, dose response, biochemical, cell-free fluorescence (AID 449749); assay type: functional
T3 sequence (P9WMR3 whole entry): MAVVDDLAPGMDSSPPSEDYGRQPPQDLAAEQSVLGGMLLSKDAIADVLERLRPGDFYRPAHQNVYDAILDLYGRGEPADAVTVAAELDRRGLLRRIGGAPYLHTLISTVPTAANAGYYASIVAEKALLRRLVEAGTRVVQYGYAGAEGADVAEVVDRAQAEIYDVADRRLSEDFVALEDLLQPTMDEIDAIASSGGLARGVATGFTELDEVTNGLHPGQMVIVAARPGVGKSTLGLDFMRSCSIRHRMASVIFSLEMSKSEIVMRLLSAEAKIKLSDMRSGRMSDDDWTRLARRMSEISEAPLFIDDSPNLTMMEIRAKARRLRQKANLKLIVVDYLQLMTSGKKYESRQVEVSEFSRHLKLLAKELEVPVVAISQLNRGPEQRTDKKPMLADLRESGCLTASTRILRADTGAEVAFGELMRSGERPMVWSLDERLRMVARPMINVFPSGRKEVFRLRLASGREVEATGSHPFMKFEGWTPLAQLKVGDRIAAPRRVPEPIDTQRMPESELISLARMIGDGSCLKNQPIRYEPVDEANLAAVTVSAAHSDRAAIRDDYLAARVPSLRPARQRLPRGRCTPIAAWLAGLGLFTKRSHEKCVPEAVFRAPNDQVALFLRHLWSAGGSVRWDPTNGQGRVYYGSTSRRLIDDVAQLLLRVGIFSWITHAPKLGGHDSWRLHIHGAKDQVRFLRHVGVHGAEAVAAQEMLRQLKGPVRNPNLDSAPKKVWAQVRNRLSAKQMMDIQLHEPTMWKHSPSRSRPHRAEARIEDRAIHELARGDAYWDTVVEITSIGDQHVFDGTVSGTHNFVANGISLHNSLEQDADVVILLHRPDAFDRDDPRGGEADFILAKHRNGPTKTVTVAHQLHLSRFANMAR

INS1 = assay: INS-1E survival protection against cytokine death – cell-based, luminescence, retest, dose response (AID 449756); assay type: functional; details: Rattus norvegicus;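 note: cell death triggered by IL-1 beta plus TNF-alpha plus IFN-gamma mixture; protective hits raise ATP signal compared with cytokine alone wells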
[2] = fluconazole-exposed Candida albicans growth modulators – fluorescence, retest, confirmation (AID 2467); assay type: functional, cell-based
[3] = NIH-3T3 fibroblast cytotoxicity, dose response, cytotoxicity control, cell-based, fluorescence, Alamar Blue, secondary assay (AID 2327); assay type: functional;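 note: NIH-3T3 mouse fibroblasts cultured with fluconazole at 8 µg/mL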
[4] = molecular target: T4, Heat shock factor protein 1 (Mus musculus, UniProt P38532); assay: enhancement of HSF1-driven luciferase signal – cell-based, NIH3T3, luminescence, dose retest, confirmation (AID 435004); assay type: functional;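 note: stress induced by proteasome inhibitor MG132 added 30 min after compound; luciferase reporter driven by HSF1 response element in NIH3T3 cells; actives raise luminescence as potentiators of the MG132 stress response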
T4 sequence (P38532 whole entry): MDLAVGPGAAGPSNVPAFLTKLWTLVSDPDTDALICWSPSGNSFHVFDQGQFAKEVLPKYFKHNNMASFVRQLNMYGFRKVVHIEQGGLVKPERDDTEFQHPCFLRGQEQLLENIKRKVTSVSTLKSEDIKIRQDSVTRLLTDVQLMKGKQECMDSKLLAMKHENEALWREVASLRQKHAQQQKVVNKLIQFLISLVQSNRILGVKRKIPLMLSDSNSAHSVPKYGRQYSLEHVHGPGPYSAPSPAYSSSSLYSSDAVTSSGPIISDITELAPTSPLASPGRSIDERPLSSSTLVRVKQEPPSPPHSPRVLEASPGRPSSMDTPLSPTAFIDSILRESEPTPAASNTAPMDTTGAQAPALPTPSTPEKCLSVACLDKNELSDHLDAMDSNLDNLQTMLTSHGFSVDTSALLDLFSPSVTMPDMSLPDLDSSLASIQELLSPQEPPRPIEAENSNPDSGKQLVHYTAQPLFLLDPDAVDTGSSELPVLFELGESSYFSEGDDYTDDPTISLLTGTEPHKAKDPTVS

[5] = NIH3T3 cell viability loss – ATP luminescence, mouse fibroblasts, counter-screen, dose response (AID 2010); assay type: functional, cell-based;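 note: cells exposed to compound for about 90 hours before reading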
[6] = Trypanosoma cruzi growth suppression in host cells – NIH3T3 host cells, beta-gal luminescence, confirmation (AID 2044); assay type: functional, cell-based;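 note: intracellular parasites grown in NIH/3T3 mouse fibroblasts as host cells; luminescent beta-galactosidase reporter signal from transgenic T. cruzi replicating inside host cells; inhibitors lower the luminescence signal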
[7] = non-specific 3'UTR reporter inhibition in Clone20-Shn3RL – cell-based, Renilla luciferase, cherry-picked, counter-screen for Shn3 inhibitor project, dose response (AID 624133); assay type: functional
[8] = reduction of Shn3 3'UTR-driven luciferase in osteoblasts – cell-based, Clone20 osteoblasts, firefly luciferase, cherry-picked, dose response (AID 624132); assay type: functional;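 note: firefly luciferase luminescence from reporter carrying the Shn3 3'UTR in osteoblasts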
[9] = Luminescence Cell-Based Dose Retest to Confirm Inhibitors of Cancer Stem Cells. [Related pubchem assays (depositor defined):AID2717, AID2721]; assay type: functional; details: Homo sapiens
Streptococcus = assay: GAS UMAA2166 growth inhibition – luminescence, BacTiterGlo, counter-screen for streptokinase expression inhibitor project, dose response (AID 1915); assay type: functional, organism-based;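 note: potency for reduction of bacterial viability or growth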
[10] = system: Streptococcus sp. 'group A'; assay: Streptococcus pyogenes SK(-)GAS viability under kanamycin – luminescence, BacTiterGlo, confirmation, counter-screen for streptokinase expression inhibitor project, dose response (AID 1900); assay type: functional, organism-based
Streptokinase A = molecular target: T5, Streptokinase A (Streptococcus pyogenes serotype M1, UniProt P10520); assay: viability-normalized secreted streptokinase activity reduction – plasminogen activation absorbance, OD405, dose response (AID 1914); assay type: functional, Streptococcus pyogenes M1 GAS;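 note: secreted streptokinase activity via plasminogen activation per viability signal from cell pellet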
T5 sequence (P10520 whole entry): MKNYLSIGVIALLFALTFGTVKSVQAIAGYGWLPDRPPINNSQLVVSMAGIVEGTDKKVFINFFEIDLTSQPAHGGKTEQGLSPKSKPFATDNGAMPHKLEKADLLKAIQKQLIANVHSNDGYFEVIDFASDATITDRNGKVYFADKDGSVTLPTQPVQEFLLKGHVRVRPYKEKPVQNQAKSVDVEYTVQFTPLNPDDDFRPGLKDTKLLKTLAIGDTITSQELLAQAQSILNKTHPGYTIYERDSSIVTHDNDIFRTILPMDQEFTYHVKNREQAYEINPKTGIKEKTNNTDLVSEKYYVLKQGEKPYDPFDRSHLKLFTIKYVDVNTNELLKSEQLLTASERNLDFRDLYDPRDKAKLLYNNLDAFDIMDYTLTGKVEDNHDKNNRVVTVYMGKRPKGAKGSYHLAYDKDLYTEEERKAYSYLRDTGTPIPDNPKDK

[11] = Luminescence Cell-Based Dose Response HTS to Identify Inhibitors of 5'UTR Stem-Loop Driven Prion Protein mRNA Translation in H4 Neuroglioblastoma Cells. [Related pubchem assays: 1827 (Project Summary), 1813 (Primary HTS)]; assay type: functional
[12] = alpha-synuclein stem-loop luciferase translation blockers – H4 neuroglioma cells, luminescence, confirmation (AID 1988); assay type: functional, cell-based

## Cc1[nH]c2ccccc2c1CCNC(=O)c1ccc2c(c1[N+](=O)[O-])C(=O)c1ccccc1C2=O
Cytochrome P450 1A2
  AC50: 4.47 µM (inconclusive)
Protein RecA
  EC50: 3.26 µM (active)
[1]
  AC50: 10.1 µM (active)

## Cc1ccc(C2CC(c3ccc(C)cc3)n3nc(N)nc3N2)cc1 (stereo not drawn)
INS1
  AC50: 28.7 µM (active)

## Cc1ccc(NC(=O)NCc2ccccn2)c(C)c1
[2]
  EC50: 6.59 µM (active)
[3]
  EC50: > 160 µM (inactive)

## O=C(O)c1ccc(/C=C(\c2nc3ccccc3[nH]2)c2nc3ccccc3s2)cc1
Protein RecA
  EC50: 21 µM (active)
[1]
  AC50: > 380 µM (inactive)

## Cc1cccc(NC2=NC(=S)N(c3cccc(C(=O)O)c3)C23CCCCC3)c1
[2]
  EC50: 2.12 µM (active)
[3]
  EC50: 19.7 µM (inconclusive)

## COc1cc2nc(S)nc(NCc3cccs3)c2cc1OC
[4]
  EC50: > 260 µM (inactive)

## CN(CCCNC(=O)CCCOc1cc(=O)n(C)c2ccccc12)Cc1ccccc1
[5]
  EC50: > 30 µM (not active)
[6]
  EC50: 0.46 µM (active)
[2]
  EC50: > 38 µM (not active)
[3]
  EC50: > 160 µM (inactive)

## Cc1ccc2cccc(NC(=O)C(F)(F)F)c2n1
[4]
  EC50: > 260 µM (inactive)

## NC(=O)c1cc(N2C(=O)C=CC2=O)ccc1Cl
[7]
  AC50: 25.5 µM (active)
[8]
  AC50: 11.3 µM (active)

## CN1CC(C(=O)c2ccc(F)cc2)C(c2c(F)cccc2Cl)C1 (stereo not drawn)
[4]
  EC50: > 260 µM (inactive)

## Cc1nc2cc3[nH]c(C(F)(F)F)nc3cc2[nH]1
[4]
  EC50: > 260 µM (inactive)

## C#CC[N+]1(CC#Cc2ccccc2)CCCCC1
[4]
  EC50: > 260 µM (inactive)

## CCOC(=O)C1CCCN(c2cc(C)nc3cc(-c4ccc(F)cc4)nn23)C1 (stereo not drawn)
[2]
  EC50: > 38 µM (not active)
[3]
  EC50: > 160 µM (inactive)

## O=C(O)c1ccc(-n2c(=O)c3ccccc3c3ccccc3c2=O)cc1
Protein RecA
  EC50: 70.7 µM (active)
[1]
  AC50: 15.8 µM (active)

## COc1ccc2nc(N=Nc3ccc(O)c4ccccc34)sc2c1
INS1
  AC50: 2.09 µM (active)
[9]
  AC50: 1.73 µM (active)

## Cc1ccc(-n2nc3c(c2NC(=O)c2ccc4c(c2)OCO4)CSC3)c(C)c1
[4]
  EC50: > 260 µM (inactive)

## O=C1c2ccccc2C2=Nc3ccccc3SC(c3ccc(Cl)cc3)C12 (stereo not drawn)
INS1
  AC50: 14.1 µM (active)
Streptococcus
  EC50: 4.58 µM (active)
[10]
  EC50: 2.87 µM (active)
[9]
  AC50: 5.23 µM (active)
Streptokinase A
  EC50: > 150 µM (not active)

## CCCCc1ccc(-c2ccc(C)cc2O)nc1
[11]
  EC50: 11.7 µM (inconclusive)
[12]
  EC50: 4.33 µM (active)

## Cc1cc2nc(Sc3c([N+](=O)[O-])nc(C)n3Cc3ccccc3)[nH]c2cc1C
Protein RecA
  EC50: 7.56 µM (active)
[1]
  AC50: 11.3 µM (active)

## COC(/C(=N/O)c1ccc(Cl)cc1)c1ccccc1 (stereo not drawn)
INS1
  AC50: 2.72 µM (active)

## O=C(CN1CCCc2ccccc21)N/N=C/c1ccccc1O
INS1
  AC50: 4.81 µM (active)

## O=C(N/N=C/c1ccc([N+](=O)[O-])o1)c1ccccc1NS(=O)(=O)c1cccs1
Protein RecA
  EC50: 125 µM (active)
[1]
  AC50: > 380 µM (inactive)

## O=C(Nc1ccccc1O)c1ccccc1O
[2]
  EC50: 6.43 µM (active)
[3]
  EC50: > 150 µM (inactive)
